Measurements as given in article PMC10819767, “An ADAM10 Exosite Inhibitor Is Efficacious in an In Vivo Collagen-Induced Arthritis Model” (Pharmaceuticals, 2024).

Experiments:
[1] = biological target: T1, ADAM10 (Homo sapiens, UniProt O14672); assay: ADAM10 enzyme assay with glycosylated substrate DM2; format: biochemical; details: for activity against ADAM10 (in words): SAR discussion
T1 construct: purchased R & D Systems (Minneapolis, MN, USA)
T1 sequence (O14672 214-748): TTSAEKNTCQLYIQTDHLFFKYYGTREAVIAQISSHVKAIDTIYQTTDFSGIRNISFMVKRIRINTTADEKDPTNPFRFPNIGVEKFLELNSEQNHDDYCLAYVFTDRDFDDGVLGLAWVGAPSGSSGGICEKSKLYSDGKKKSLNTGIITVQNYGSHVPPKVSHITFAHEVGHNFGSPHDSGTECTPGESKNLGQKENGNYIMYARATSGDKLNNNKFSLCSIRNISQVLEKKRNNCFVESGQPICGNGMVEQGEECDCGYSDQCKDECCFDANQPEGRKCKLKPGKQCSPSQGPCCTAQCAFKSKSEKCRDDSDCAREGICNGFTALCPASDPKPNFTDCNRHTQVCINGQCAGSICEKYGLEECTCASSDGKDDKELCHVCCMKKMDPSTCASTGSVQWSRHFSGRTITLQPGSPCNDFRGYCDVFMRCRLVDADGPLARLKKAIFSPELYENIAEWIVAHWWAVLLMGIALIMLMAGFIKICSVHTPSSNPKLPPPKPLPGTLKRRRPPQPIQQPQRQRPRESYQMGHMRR
Method: (§1) ADAM10 and ADAM17 assays. Both assays were performed as published previously by us. Briefly, both assays followed the same general protocol. In total, 5 μL of the 2× enzyme solution (20 nM) in an assay buffer (10 mM Hepes, 0.001% Brij-35, pH 7.5) were added to solid bottom black 384 plates (Nunc, ThermoFisher, Waltham, MA, USA, cat# 264705). Next, test compounds and pharmacological controls were added to the corresponding wells using a 384-pin tool device (V & P Scientific, San Diego, CA, USA). After 60 min of incubation at RT, the reactions were started via the addition of 5 μL of the 2× solutions of glycosylated substrate DM2 (20 μM). The reactions were incubated at RT for 2 h, after which the fluorescence was measured using a Biotek H1 multimode microplate imager (λexcitation = 360 nm, λemission = 460 nm). IC50 values were calculated by fitting normalized data to the sigmoidal log vs. the response equation utilizing a non-linear regression analysis from GraphPad Prizm 9.

[2] = biological target: T2, ADAM17 (Homo sapiens, UniProt P78536); assay: ADAM17 enzyme assay with glycosylated substrate DM2; format: biochemical; details: for selectivity against ADAM17 (in words): ADAM10 vs ADAM17
T2 construct: purchased R & D Systems (Minneapolis, MN, USA)
T2 sequence (P78536 215-824, species assumed): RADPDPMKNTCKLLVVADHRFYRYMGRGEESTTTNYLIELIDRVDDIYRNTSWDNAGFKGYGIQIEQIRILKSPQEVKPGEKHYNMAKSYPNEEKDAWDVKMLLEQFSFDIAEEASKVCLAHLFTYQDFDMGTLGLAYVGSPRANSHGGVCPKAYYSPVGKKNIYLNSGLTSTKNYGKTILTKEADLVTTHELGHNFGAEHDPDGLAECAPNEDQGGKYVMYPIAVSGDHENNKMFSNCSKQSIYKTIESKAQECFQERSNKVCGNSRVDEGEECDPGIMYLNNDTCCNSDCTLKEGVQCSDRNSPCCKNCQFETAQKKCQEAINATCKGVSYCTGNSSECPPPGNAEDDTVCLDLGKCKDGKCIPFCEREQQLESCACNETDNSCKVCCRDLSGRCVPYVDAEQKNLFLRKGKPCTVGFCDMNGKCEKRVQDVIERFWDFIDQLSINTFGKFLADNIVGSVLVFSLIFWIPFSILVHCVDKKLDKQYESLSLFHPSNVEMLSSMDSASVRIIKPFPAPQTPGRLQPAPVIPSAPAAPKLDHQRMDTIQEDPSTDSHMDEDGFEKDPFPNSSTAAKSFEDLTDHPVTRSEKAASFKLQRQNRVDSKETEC
Method: as §1

[3] = tested on: articular joints affected by RA; assay: Histopathology (H & E) of arthritic joint, CIA mice; format: in vivo, C57 BL/6 mice; details: indomethacin 2.5 mg/kg/day
Method: (§2) The sample size for therapeutic evaluation was calculated using power analysis based on experimental data from similar studies. In a two-sided test and setting the α value at 0.05 and desired power at 0.95, the sample size turned out to be 5 per group. We also expected deaths during the experiments; therefore, we used the formula Nt = N/1-q, where Nt is the number of mice initially used, N is the number required at the end of the study, and q is the proportion of attrition, which is generally 10%. Thus, at the end of the study period, we expected to have data from at least […] per group, which is enough to attain statistical significance if it exists. Data were analyzed using a one-way ANOVA followed by Dunnett’s test compared with the vehicle control. At the end of the study, the mice were anesthetized and sacrificed using CO2 euthanasia. The hind paws of the mice were subjected to a histopathological examination, and the serum was analyzed for CRP, TNF-α, IL-6, and IL-10, as described in the below sections. Histology. Limbs from euthanized animals were preserved in buffered formalin, decalcified, embedded, sectioned, and stained with hematoxylin and eosin (H & E). Microscopic images were acquired using the Lx 400 microscope (Labomed, Fremont, CA, USA).

[4] = tested on: TNFα; assay: RA serum marker ELISA, TNFα, CIA mice; format: in vivo, C57 BL/6 mice; details: CID 3117694 50 mg/kg/day; indomethacin 2.5 mg/kg
Method: as §2, with “sections.” for “sections. Histology. Limbs from euthanized animals were preserved in buffered formalin, decalcified, embedded, sectioned, and stained with hematoxylin and eosin (H & E). Microscopic images were acquired using the Lx 400 microscope (Labomed, Fremont, CA, USA).”
(§3) RA serum marker analysis. Blood was collected from the tail vein, and 100 µL was used for the assays. All assays were conducted using the manufacturer’s instructions for the respective assay kits. The following assay kits were purchased: Mouse TNF-α GENLISA™ ELISA (Krishgen BioSystems cat#KB2145, Mumbai, India), Mouse IL-10 GENLISA™ ELISA (Krishgen BioSystems cat#KB2072), Mouse hsC-Reactive Protein, hs-CRP GENLISA™ ELISA (Krishgen BioSystems cat#KLM0318), Mouse IL-6 GENLISA™ ELISA (Krishgen BioSystems cat#KB2068).

[5] = tested on: C-reactive protein (CRP); assay: RA serum marker ELISA, CRP, CIA mice; format: in vivo, C57 BL/6 mice; details: CID 3117694 50 mg/kg/day; indomethacin 2.5 mg/kg
Method: as §2, with “sections.” for “sections. Histology. Limbs from euthanized animals were preserved in buffered formalin, decalcified, embedded, sectioned, and stained with hematoxylin and eosin (H & E). Microscopic images were acquired using the Lx 400 microscope (Labomed, Fremont, CA, USA).”
as §3

[6] = tested on: IL-6; assay: RA serum marker ELISA, IL-6, CIA mice; format: in vivo, C57 BL/6 mice; details: CID 3117694 50 mg/kg/day; indomethacin 2.5 mg/kg
Method: as §2, with “sections.” for “sections. Histology. Limbs from euthanized animals were preserved in buffered formalin, decalcified, embedded, sectioned, and stained with hematoxylin and eosin (H & E). Microscopic images were acquired using the Lx 400 microscope (Labomed, Fremont, CA, USA).”
as §3

[7] = tested on: IL-10; assay: RA serum marker ELISA, IL-10, CIA mice; format: in vivo, C57 BL/6 mice; details: CID 3117694 50 mg/kg/day; indomethacin 2.5 mg/kg
Method: as §2, with “sections.” for “sections. Histology. Limbs from euthanized animals were preserved in buffered formalin, decalcified, embedded, sectioned, and stained with hematoxylin and eosin (H & E). Microscopic images were acquired using the Lx 400 microscope (Labomed, Fremont, CA, USA).”
as §3

[8] = tested on: collagen-induced arthritis (CIA) model; assay: CIA mouse model: clinical arthritis score and paw swelling; format: in vivo, C57 BL/6 mice; details: indomethacin 2.5 mg/kg oral, scale 0–4
Method: In vivo efficacy in the CIA mouse model. All animal studies were conducted in accordance with NSU IACUC guidelines. Study protocol #2021.04.DM5 was approved by NSU IACUC before the commencement of the studies. CID 3117694 and indomethacin were ground with a small amount of the dispersing agent (0.5% HPMC (3 cP)–0.5% Tween 80) using a mortar and a pestle and mixed repeatedly to form a smooth paste. The paste was moved to a graduated cylinder and filled up to the required volume with the dispersing agent to form a suspension, as described elsewhere. The test compound (10, 30, and 50 mg/kg) and indomethacin (2.5 mg/kg) were administered with a mouse gavage needle (gauge no: 18, BD, catalog number: 653902) through the oral route as a suspension with a 5 mL/kg dose volume (from day 0 to day 28). In this study, 6–8-week-old C57 BL/6 mice from Charles River (male and female) were used. Animals were randomly assigned to one of the following six groups: (1) normal (non-RA control), (2) RA control untreated, (3) RA control treated with 2.5 mg/kg/day indomethacin, and 3 test groups (CID 3117694 (10 mg/kg/day, 30 mg/kg/day, and 50 mg/kg/day)) to provide an estimate for the lead compound’s efficacy range. Each group had three males and three females assigned to the control for gender-based differences. Arthritis was induced in the right paws of the mice under anaesthesia. The left paw of the mice was used as a control. A total of 10 µL collagen from bovine (type II collagen) nasal septum emulsion (2 mg/mL) was injected into the right knee joint with a glass Hamilton syringe and 25 G needles for intraarticular (i.a.) injection, followed by a total of 100 µL Complete Freund’s adjuvant (CFA) emulsion was injected at the back of mice using a syringe with 25 G needles subcutaneously (s.c.). On day 14 after the first injection, the mice were injected, i.e., with 10 µL of collagen from the bovine nasal septum ([…]) and s.c. with a 100 µL CFA emulsion for a boost injection. Arthritis progression was monitored using a clinical arthritis scoring system (0–4), and paw swelling was measured with the help of a plethysmograph on days 0, 14, 21, and 28 after the induction of arthritis. […] After the administration of a primary dose of collagen from the bovine nasal septum, CFA scoring was assessed. Measurements were taken on days 0, 14, 21, and 28 after the induction of arthritis in induced paws (right paw) and non-arthritis paws (left paw). CID 3117694 (10 mg/kg/day, 30 mg/kg/day, and 50 mg/kg/day) and pharmacological control (indomethacin 2.5 mg/kg/day) treatment were given every day for 28 days beginning from day 1 via oral gavage in hydroxy-propyl-methyl cellulose (HPMC) suspension.

SMILES | IC50 [1] | IC50 [2] | activity against ADAM10 (in words) [1] | further results
Cc1c(Cl)cccc1NC(=O)C(=O)NNC(=O)c1ccc(C(C)(C)C)cc1 [CID 2218294] | > 100 µM | > 100 µM |  | 
Cc1ccc(NC(=O)C(=O)NNC(=O)c2ccc(C(C)(C)C)cc2)cc1Cl [CID 2213247] | > 100 µM | > 100 µM |  | 
CCc1ccc(NC(=O)C(=O)NNC(=O)c2ccc(C(C)(C)C)cc2)cc1 [CID 2113284] | > 100 µM | > 100 µM |  | 
Cc1ccccc1C(=O)NNC(=O)C(=O)Nc1cccc2ccccc12 [CID 2841765] | 2.8 µM | 2 µM | retrieved the activity | selectivity against ADAM17 (in words) [2]: selectivity against ADAM17 was lost
COc1ccccc1NC(=O)C(=O)NNC(=O)c1ccccc1Cl [CID 2273473] | 33 µM | 33 µM | reduced affinity | selectivity against ADAM17 (in words) [2]: no selectivity
Cc1ccccc1NC(=O)C(=O)NNC(=O)c1ccc(Cl)cc1 [CID 2869359] | > 100 µM | > 100 µM | did not rescue the activity | 
COc1ccc2c(c1)c(CC(=O)O)c(C)n2C(=O)c1ccc(Cl)cc1 [indomethacin, reference compound] |  |  |  | histopathological findings (in words) [3]: presence of inflammation and hyperplasia; histopathological findings (in words) ([3]; listed as Indomethacin): only residual inflammation and hyperplasia; TNFα blood level vs healthy control [4]: the same as that of the healthy controls; CRP blood level vs healthy control [5]: the same as that of the healthy controls; IL-6 blood level vs healthy control [6]: the same as that of the healthy controls; IL-10 blood level vs healthy control [7]: the same as that of the healthy controls; disease score ([8]; day 21): 2; disease score ([8]; day 28): 1
